Read-outs that look alike come from different tables or passages of the source. Blank lines part the entries; values can stand above or below the compound they belong to.
Key:
AR transactivation [1] = assay: AR transactivation with Smad3/Smad4, CAT reporters in PC3-AR2, PC-3 and LNCaP cells; type: cell-based, human; conditions: PC3-AR2
Method: 32. […] LNCaP cell were transfected with Smad3 or Smad4 expression vector instead of PC-3(AR)2 cells in experiments otherwise identical with those in A (B), PC-3(AR)2 cells stably transfected with AR were over-expressed with the indicated amounts of Smad3 or Smad4 or SRC-1. 3 μg of MMTV-CAT was used as a reporter plasmid in all experiments. All values represent the averages±SD of four independent experiments. […] PSA expression level was determined by Northern blotting. The probe was obtained from exon 1 of the PSA gene and labeled with [α-^32P] dCTP. A β-actin probe was used as a control for equivalent mRNA loading. (C, Table 1) The RNA samples from (A) were reverse transcribed to cDNAs and all of the samples were subjected to real-time CR using an ABI Prism 7700 Sequence Detection System (Perkin-Elmer Applied bio systems). PCR was performed using the SYBR Green PCR Core Reagents kit (Perkin-Elmer Applied Bio systems). PSA and β-actin forward, reverse primers concentrations were 2.5 μM. To reduce variability between replicates, PCR premixes which contained all reagents except for total RNA were prepared and aliquoted into 1.5 ml microfuge tubes. Specific PCR amplification products were detected by the fluorescent double-stranded DNA-binding dye SYBR Green core reagent kit. […]
333. […] The CAT activity was visualized and quantitated by STORM 840 (Molecular Dynamics). […]

AR transactivation [2] = assay: AR transactivation with TSA, MMTV-LUC in PC3-AR2 cells; type: cell-based
AR transactivation [3] = conditions: previous reports; cited from earlier work
PSA mRNA expression = PSA mRNA expression in LNCaP cells, Northern blot; type: cell-based; conditions: presence of androgen
AR transactivation [4] = assay: AR transactivation, MMTV-luc / (ARE)4-luc luciferase reporter assay; type: cell-based; conditions: 10 nM DHT; for Repression of AR transactivation: MMTV-luc
AR, ER, GR, PR, RXR = assay: GST pull-down assay of PTEN with nuclear receptors; type: binding; conditions: presence or absence of ligand
Method: 27. […] (A) GST or GST-PTEN incubation with the [^35S]-labeled AR, ER, or RXR for 2 h in the presence or absence of the ligand. The bound proteins were analyzed by SDS-PAGE, followed by autoradiography. (B) Representation of PTEN deleted mutants. PTP domain, protein tyrosine phosphates domain; Ty-p, tyrosine phosphorylation domain. (C) [^35S]-labeled AR was incubated with different PTEN deleted mutants. The nearly equivalent aliquots of PTEN deleted mutants used are shown in the right panel. (D) Representation of AR deleted mutants. (E) GST or GST-PTEN was incubated with different AR deleted mutants. (F) The His-AR-N-DBD was incubated with [^35S]-PTEN or [^35S]-PTEN C124S for 2 h. The bound protein was analyzed by the SDS-PAGE, followed by autoradiography.
313. GST fusion proteins were purified as described by the manufacturer (Amersham Pharmacia). The purified GST-proteins were resuspended with 100 μl of interaction buffer (20 mM Tris-HCl/pH 8.0, 60 mM NaCl, 1 mM EDTA, 6 mM MgCl2, 1 mM Dithiothreitol, 8% Glycerol, 0.05% (v/v) NP-40, 1 mM PMSF, and proteinase inhibitors) and mixed with 5 μl of [^35S]-labeled TNT proteins in the presence or absence of 1 μM ligands on a rotating disk at 4° C. for 2 h. After extensive washes with NENT buffer, the bound proteins were separated on an 8% SDS-polyacrylamide gel and visualized by autoradiography.

AR protein levels = assay: AR protein (Western blot) and AR mRNA (Northern blot) levels; type: cell-based
AR protein stability = assay: Pulse-chase labeling of AR in COS-1 cells; type: cell-based; conditions: 10 nM DHT
Method: 30. […] The cells were harvested for Western blot analysis. […] Western blot analysis was performed and AR and PTEN were detected by AR antibody or PTEN antibody. (C) PTEN-C1 cells were treated with 4 μg/ml Dox in 10% CDS media for 48 h. Total RNA was prepared and Northern blot analysis was performed using [^32P]-dCTP-labeled AR (aa, 1-389) as a probe. (D) COS-1 cells were transfected with AR along with pCDNA3 or PTEN in 10% CDS media for 16 h. […] The cell extracts were immunoprecipitated with AR antibody and subjected to SDS-PAGE followed by autoradiography. Data were from three identical results. (E) COS-1 cells were transfected with AR along with pCDNA3 or dAkt in 10% CDS media for 16 h, pulsed with [^35S]-methionine for 45 min, and then harvested at different chase times as indicated. LY294002 (20 μM) was added 2 h before pulsing with [^35S]-methionine.
317. Pulse-chase experiments were performed as described (Lo et al. (1999) Nat Cell Biol 1, 472-8) with some modifications. Briefly, COS-1 cells were transfected with pSG5-AR in combination with pCDNA3 or pCDNA3 PTEN in 10% CDS media for […]. Cells were grown under serum starvation conditions for 2 h in methionine/cysteine-deficient medium, and then the cells were pulsed for 45 min with 200 μCi/ml [^35S]-methionine/cysteine (NEN). […]

LNCaP cells = assay: PTEN-induced apoptosis in LNCaP cells, TUNEL assay; type: cell-based; conditions: 0.1% CDS media 2 days
U87MG cells = assay: PTEN-induced apoptosis in AR-negative U87MG cells, TUNEL assay; type: cell-based
Method: (§1) 31. […] (D) The LNCaP cells were transfected with plasmids as indicated for 16 h, and the medium was changed to 0.1% CDS media for 2 days. The cell apoptosis was determined by TUNEL assay (E) The LNCaP cells were transfected with plasmids as indicated for 16 h, harvested, and the cell extracts were subjected to SDS-PAGE. The Akt activity was determined by Western blotting using phospho(S473)-Akt antibody. (F) The U87MG cells were transfected with plasmids as indicated for 16 h, and the medium was changed 0.1% CDS media for 2 days. The cell apoptosis was determined by TUNEL assay. Data for luciferase activity and apoptosis are means±s.d. from three independent experiments.
311. For the apoptosis assay, the cells were transfected with plasmids for 24 h and grown in 0.1% charcol-stripped serum (CDS) media. The apoptosis was determined 2 days after transfection using the TUNEL assay according to the standard procedures (Oncogene). At least 200 cells were scored for each sample and data are means±s.d. from three independent experiments.

AR transactivation [5] = assay: AR transactivation, (ARE)4-luc in CWR22 cells; type: cell-based, human
Method: as §1
312. […] The cells were lysed and the luciferase activity was detected by the dual luciferase assay according to standard procedures.

[6] = system: wtAR, mtARt877a, PR, VDR, ER transactivation; conditions: previous reports; cited from earlier work
[7] = system: wtAR, mtARt877a, PR, VDR, ER transactivation; assay: Steroid receptor transactivation with Smad3 in DU145 cells (wtAR, mtARt877a, PR, VDR, ER); type: cell-based, human
[8] = system: AR-mediated transactivation; assay: AR-mediated transactivation with TGF-β, MMTV-CAT in DU145 and PC-3 cells; type: cell-based, human
Method: 19. […] (B). […] In the right panel, a fixed amount of TGF-β1 (10 ng/ml) was added into transfected PC-3 cells with increasing amounts of specific TGF-β1 neutralizing antibody. (C), PC-3(AR)2 cells stably transfected with AR were overexpressed with TGF-β type I (TβRI) or type II (TβRII)receptor or constitutively active TGF-β type I receptor (TβRI-T204D) as indicated. 3 μg of MMTV-CAT or MMTV-Luc was used as a reporter plasmid in all experiments. All values represent the averages+SD of four independent experiments.
284. To study the potential correlation between androgen and TGF-β in prostate cancer cells, the TGF-β responsive prostate cancer DU145 and PC-3 cells were chosen to examine the effect of TGF-β on androgen-induced mouse […] tumor virus (MMTV) promoter activity. […] Similar results were obtained with PC-3 cells, where AR-mediated transactivation was enhanced by TGF-β (FIG. 13B, lane 2 Vs 3-5) and suppressed by the TGF-β specific neutralizing antibody (FIG. 13B, lane 6 vs. 7-10), both in a dose-dependent manner (FIG. 13B).
294. […] The CAT activity was visualized and quantitated by STORM 840 (Molecular Dynamics). […]

[9] = target: T1, interaction between Smad3 and AR (Homo sapiens, UniProt P10275); assay: Mammalian two-hybrid assay Gal4-Smad3 / VP16-AR; type: cell-based; conditions: DU145
T1 construct: expressed in transfected cells; host or cells: DU145
T1 sequence (P10275 whole entry, the tested form may be a part): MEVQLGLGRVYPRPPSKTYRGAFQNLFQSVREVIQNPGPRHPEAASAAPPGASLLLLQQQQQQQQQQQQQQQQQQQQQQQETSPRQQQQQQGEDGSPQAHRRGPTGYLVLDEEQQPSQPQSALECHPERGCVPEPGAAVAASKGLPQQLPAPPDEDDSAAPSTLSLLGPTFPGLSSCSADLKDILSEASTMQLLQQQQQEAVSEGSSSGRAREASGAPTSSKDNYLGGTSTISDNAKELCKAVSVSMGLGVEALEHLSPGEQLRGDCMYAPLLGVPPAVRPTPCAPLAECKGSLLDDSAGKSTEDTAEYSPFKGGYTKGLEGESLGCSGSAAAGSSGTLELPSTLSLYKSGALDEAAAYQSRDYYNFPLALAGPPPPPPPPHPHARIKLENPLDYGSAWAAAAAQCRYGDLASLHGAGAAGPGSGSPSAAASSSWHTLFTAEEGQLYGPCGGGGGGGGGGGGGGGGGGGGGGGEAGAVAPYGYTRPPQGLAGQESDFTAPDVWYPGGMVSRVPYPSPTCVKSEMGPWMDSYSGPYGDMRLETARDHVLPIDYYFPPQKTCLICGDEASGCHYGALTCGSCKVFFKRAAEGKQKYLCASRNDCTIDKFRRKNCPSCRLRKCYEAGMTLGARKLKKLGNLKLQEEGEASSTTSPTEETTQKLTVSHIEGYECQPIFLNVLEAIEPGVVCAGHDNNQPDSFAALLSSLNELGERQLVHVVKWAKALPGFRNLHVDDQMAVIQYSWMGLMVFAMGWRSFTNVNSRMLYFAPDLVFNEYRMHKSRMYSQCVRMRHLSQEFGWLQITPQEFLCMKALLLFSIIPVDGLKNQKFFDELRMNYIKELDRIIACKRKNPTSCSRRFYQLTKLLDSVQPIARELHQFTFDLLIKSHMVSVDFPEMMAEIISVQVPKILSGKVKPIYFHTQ
T1 sequence (P84022 whole entry partner, the tested form may be a part): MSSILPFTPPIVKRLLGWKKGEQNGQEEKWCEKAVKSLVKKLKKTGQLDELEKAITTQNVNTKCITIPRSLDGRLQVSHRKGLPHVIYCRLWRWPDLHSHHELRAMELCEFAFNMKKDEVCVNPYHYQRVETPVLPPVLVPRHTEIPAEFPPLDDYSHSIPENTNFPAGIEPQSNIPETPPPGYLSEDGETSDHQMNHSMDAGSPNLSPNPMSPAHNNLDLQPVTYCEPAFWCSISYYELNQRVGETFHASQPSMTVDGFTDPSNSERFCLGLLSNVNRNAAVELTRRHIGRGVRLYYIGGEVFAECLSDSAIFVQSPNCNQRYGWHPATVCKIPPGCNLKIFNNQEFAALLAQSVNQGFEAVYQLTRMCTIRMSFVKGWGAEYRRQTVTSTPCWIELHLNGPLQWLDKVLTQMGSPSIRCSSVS

Compound: SRC-1: steroid receptor coactivator-1
Effect on AR transactivation in the presence of Smad3 or Smad4 (AR transactivation [1]): increase AR transactivation

Compound: CC(/C=C/C(=O)NO)=C\[C@@H](C)C(=O)c1ccc(N(C)C)cc1 [TSA, trichostatin A]
Effect on Smad3/Smad4-suppressed AR transactivation (AR transactivation [2]): reverse the Smad3/Smad4-suppressed AR transactivation in a dose-dependent manner
Effect on AR transactivation (AR transactivation [2]; DHT, increasing doses): enhance AR transactivation in a dose-dependent manner
Effect on Smad3/Smad4-suppressed AR transactivation (AR transactivation [2]; listed as trichostatin A): reverse Smad3/Smad4-repressed AR transactivation
Effect on androgen-mediated AR transactivation (AR transactivation [3]): induce the androgen-mediated AR transactivation

Compound: PTEN: tumor suppressor, phosphatase and tensin homolog deleted on chromosome ten
Effect on androgen-induced PSA mRNA expression (PSA mRNA expression): repressed
Repression of AR transactivation (AR transactivation [4]; AR negative DU145 and PC-3): less than 2 fold
Repression of AR transactivation (AR transactivation [4]; AR-positive LNCaP cells): 4 fold
Effect on AR transactivation (AR transactivation [4]; LNCaP, MMTV-luc and (ARE)4-luc): suppressed AR transactivation in both luciferase reporters at a similar level
Binding to nuclear receptors (AR, ER, GR, PR, RXR): binds preferentially to AR and the ER
AR protein levels (AR protein levels; COS-1 cells, transient transfection): reduce AR protein levels
AR mRNA levels normalized by β-actin (AR protein levels; LNCaP PTEN-C1, Dox-induced PTEN): remained relatively unchanged
Endogenous AR protein levels (AR protein levels; stable LNCaP clones, 4 μg/ml Dox 48 h, 10 nM DHT): reduced endogenous AR protein levels
Reduction of the half-life of newly synthesized [35S]-AR (AR protein stability): 4 to 5 fold
Apoptosis (LNCaP cells): induce apoptosis markedly
Apoptosis (U87MG cells): still able to induce apoptosis
Effect on AR transactivation (AR transactivation [5]): dramatically suppressed AR transactivation

Compound: CC(=O)[C@H]1CC[C@H]2[C@@H]3CCC4=CC(=O)CC[C@]4(C)[C@H]3CC[C@]12C [progesterone]
Stimulation of LNCaP mtARt877a [6]: stimulated

Compound: C[C@]12CC[C@@H]3c4ccc(O)cc4CC[C@H]3[C@@H]1CC[C@@H]2O [E2, 17-β estradiol]
mtARt877a transactivation response to ligand [7]: responded much better
wtAR transactivation response to ligand ([7]; DHT 10 nM, HF 1 μM, E2 10 nM): respond marginally
Stimulation of LNCaP mtARt877a [6]: stimulated

Effect on Smad3-AR two-hybrid reporter gene activity ([9]; 10 nM DHT): further induced
Effect on Smad3-AR two-hybrid reporter gene activity ([9]; absence of DHT): cannot exert this effect
Compound: TGF-β: transforming growth factor β
Effect on AR-mediated transactivation ([8]; DU145, 10^−8 M DHT, TGF-β1 10 ng/ml): enhanced
Effect on AR-mediated transactivation ([8]; PC-3, dose-dependent): enhanced

Source: patent US20040235717A1, “Suppression of androgen receptor transactivation through new pathways to ar and ar coactivators and repressors” (priority 2001, published 2004)
